Active and inactive are the calls of the source. How the calls were made is not given here.
System: CCRIS mutagenicity, Ames/micronucleus/aberration tests
Assay: CCRIS mutagenicity studies
[1] = Test System: AMES SALMONELLA TYPHIMURIUM, Strain/Indicator: TA98, Metabolic Activation: NONE, Method: STANDARD PLATE
[2] = Test System: AMES SALMONELLA TYPHIMURIUM, Strain/Indicator: TA100, Metabolic Activation: NONE, Method: STANDARD PLATE

Measured: mutagenic call

CN(C)c1ccccc1
active: End Point: IN VITRO CHROMOSOMAL ABERRATIONS, Test System: CHO CELLS, Metabolic Activation: NONE active; positive; at highest dose | End Point: IN VITRO CHROMOSOMAL ABERRATIONS, Test System: CHO CELLS, Metabolic Activation: RAT, LIVER, S-9, AROCLOR 1254 active; positive | End Point: In vitro chromosomal aberrations, Test System: Chinese hamster lung (CHL/IU) cells, Metabolic Activation: Rat, Liver, S9, Phenobarbital and 5,6-benzoflavone active; positive (structural changes and ploidy) | Test System: MOUSE LYMPHOMA TYPHIMURIUM, Strain/Indicator: L5178Y (TK+/TK-), Metabolic Activation: RAT, LIVER, S-9, AROCLOR 1254, Method: SUSPENSION/PLATE active; positive | Test System: MOUSE LYMPHOMA, Strain/Indicator: L5178Y (TK+/TK-), Metabolic Activation: NONE, Method: SUSPENSION/PLATE active; positive
inactive: Test System: AMES SALMONELLA TYPHIMURIUM, Strain/Indicator: TA97, Metabolic Activation: HAMSTER, LIVER, S-9, AROCLOR 1254 (10 OR 30%), Method: PREINCUBATION inactive; negative | Test System: AMES SALMONELLA TYPHIMURIUM, Strain/Indicator: TA97, Metabolic Activation: NONE, Method: PREINCUBATION inactive; negative | Test System: AMES SALMONELLA TYPHIMURIUM, Strain/Indicator: TA97, Metabolic Activation: RAT, LIVER, S-9, AROCLOR 1254 (10 OR 30%), Method: PREINCUBATION inactive; negative | Test System: AMES SALMONELLA TYPHIMURIUM, Strain/Indicator: TA98, Metabolic Activation: HAMSTER, LIVER, S-9, AROCLOR 1254 (10 OR 30%), Method: PREINCUBATION inactive; negative | Test System: AMES SALMONELLA TYPHIMURIUM, Strain/Indicator: TA98, Metabolic Activation: HAMSTER, LIVER, S-9, AROCLOR 1254, Method: PREINCUBATION inactive; negative | Test System: AMES SALMONELLA TYPHIMURIUM, Strain/Indicator: TA98, Metabolic Activation: HAMSTER, LIVER, S-9, PHENOBARBITAL AND BETA-NAPHTHOFLAVONE, Method: PREINCUBATION inactive; negative | Test System: AMES SALMONELLA TYPHIMURIUM, Strain/Indicator: TA98, Metabolic Activation: RAT, LIVER, S-9, AROCLOR 1254 (10 OR 30%), Method: PREINCUBATION inactive; negative | Test System: AMES SALMONELLA TYPHIMURIUM, Strain/Indicator: TA98, Metabolic Activation: RAT, LIVER, S-9, AROCLOR 1254, Method: PREINCUBATION inactive; negative | Test System: AMES SALMONELLA TYPHIMURIUM, Strain/Indicator: TA100, Metabolic Activation: HAMSTER, LIVER, S-9, AROCLOR 1254 (10 OR 30%), Method: PREINCUBATION inactive; negative | Test System: AMES SALMONELLA TYPHIMURIUM, Strain/Indicator: TA100, Metabolic Activation: HAMSTER, LIVER, S-9, AROCLOR 1254, Method: PREINCUBATION inactive; negative | Test System: AMES SALMONELLA TYPHIMURIUM, Strain/Indicator: TA100, Metabolic Activation: HAMSTER, LIVER, S-9, PHENOBARBITAL AND BETA-NAPHTHOFLAVONE, Method: PREINCUBATION inactive; negative | Test System: AMES SALMONELLA TYPHIMURIUM, Strain/Indicator: TA100, Metabolic Activation: RAT, LIVER, S-9, AROCLOR 1254 (10 OR 30%), Method: PREINCUBATION inactive; negative | Test System: AMES SALMONELLA TYPHIMURIUM, Strain/Indicator: TA100, Metabolic Activation: RAT, LIVER, S-9, AROCLOR 1254, Method: PREINCUBATION inactive; negative | Test System: AMES SALMONELLA TYPHIMURIUM, Strain/Indicator: TA102, Metabolic Activation: HAMSTER, LIVER, S-9, PHENOBARBITAL AND BETA-NAPHTHOFLAVONE, Method: PREINCUBATION inactive; negative | Test System: AMES SALMONELLA TYPHIMURIUM, Strain/Indicator: TA102, Metabolic Activation: HAMSTER, LIVER, S-9, SODIUM PHENOBARBITAL AND 5,6-BENZOFLAVONE, Method: PREINCUBATION inactive; negative | Test System: AMES SALMONELLA TYPHIMURIUM, Strain/Indicator: TA102, Metabolic Activation: NONE, Method: PREINCUBATION inactive; negative | Test System: AMES SALMONELLA TYPHIMURIUM, Strain/Indicator: TA104, Metabolic Activation: HAMSTER, LIVER, S-9, PHENOBARBITAL AND BETA-NAPHTHOFLAVONE, Method: PREINCUBATION inactive; negative | Test System: AMES SALMONELLA TYPHIMURIUM, Strain/Indicator: TA104, Metabolic Activation: HAMSTER, LIVER, S-9, SODIUM PHENOBARBITAL AND 5,6-BENZOFLAVONE, Method: PREINCUBATION inactive; negative | Test System: AMES SALMONELLA TYPHIMURIUM, Strain/Indicator: TA104, Metabolic Activation: NONE, Method: PREINCUBATION inactive; negative | Test System: AMES SALMONELLA TYPHIMURIUM, Strain/Indicator: TA1535, Metabolic Activation: HAMSTER, LIVER, S-9, AROCLOR 1254, Method: PREINCUBATION inactive; negative | Test System: AMES SALMONELLA TYPHIMURIUM, Strain/Indicator: TA1535, Metabolic Activation: HAMSTER, LIVER, S-9, PHENOBARBITAL AND BETA-NAPHTHOFLAVONE, Method: PREINCUBATION inactive; negative | Test System: AMES SALMONELLA TYPHIMURIUM, Strain/Indicator: TA1535, Metabolic Activation: NONE, Method: PREINCUBATION inactive; negative | Test System: AMES SALMONELLA TYPHIMURIUM, Strain/Indicator: TA1535, Metabolic Activation: RAT, LIVER, S-9, AROCLOR 1254, Method: PREINCUBATION inactive; negative | Test System: AMES SALMONELLA TYPHIMURIUM, Strain/Indicator: TA1537, Metabolic Activation: HAMSTER, LIVER, S-9, AROCLOR 1254, Method: PREINCUBATION inactive; negative | Test System: AMES SALMONELLA TYPHIMURIUM, Strain/Indicator: TA1537, Metabolic Activation: HAMSTER, LIVER, S-9, PHENOBARBITAL AND BETA-NAPHTHOFLAVONE, Method: PREINCUBATION inactive; negative | Test System: AMES SALMONELLA TYPHIMURIUM, Strain/Indicator: TA1537, Metabolic Activation: NONE, Method: PREINCUBATION inactive; negative | Test System: AMES SALMONELLA TYPHIMURIUM, Strain/Indicator: TA1537, Metabolic Activation: RAT, LIVER, S-9, AROCLOR 1254, Method: PREINCUBATION inactive; negative | Test System: E. COLI, Strain/Indicator: WP2UVRA/PKM101, Metabolic Activation: HAMSTER, LIVER, S-9, PHENOBARBITAL AND BETA-NAPHTHOFLAVONE, Method: PREINCUBATION inactive; negative | Test System: E. COLI, Strain/Indicator: WP2UVRA/PKM101, Metabolic Activation: NONE, Method: PREINCUBATION inactive; negative | Test System: E. COLI, Strain/Indicator: WP2UVRA, Metabolic Activation: HAMSTER, LIVER, S-9, PHENOBARBITAL AND BETA-NAPHTHOFLAVONE, Method: PREINCUBATION inactive; negative | Test System: E. COLI, Strain/Indicator: WP2UVRA, Metabolic Activation: NONE, Method: PREINCUBATION inactive; negative | Test System: UDS RODENT HEPATOCYTES, Strain/Indicator: THY INCORP (NON-S-PHASE), Metabolic Activation: NONE, Method: AUTORADIOGRAPHY inactive; negative

CCC1(C)CO1 (configuration not stated)
inactive: [1] inactive; negative | [2] inactive; negative

COC1=CC(=O)c2c(nc(C)c3c4c([nH]c23)CCCC4)C1=O
inactive: Test System: AMES SALMONELLA TYPHIMURIUM, Strain/Indicator: TA97A, Metabolic Activation: NONE, Method: STANDARD PLATE inactive; negative | Test System: AMES SALMONELLA TYPHIMURIUM, Strain/Indicator: TA97A, Metabolic Activation: RAT LIVER S-9, AROCLOR 1254, Method: STANDARD PLATE inactive; negative | [2] inactive; negative | Test System: AMES SALMONELLA TYPHIMURIUM, Strain/Indicator: TA100, Metabolic Activation: RAT LIVER S-9, AROCLOR 1254, Method: STANDARD PLATE inactive; negative | Test System: AMES SALMONELLA TYPHIMURIUM, Strain/Indicator: TA102, Metabolic Activation: NONE, Method: STANDARD PLATE inactive; negative | Test System: AMES SALMONELLA TYPHIMURIUM, Strain/Indicator: TA102, Metabolic Activation: RAT LIVER S-9, AROCLOR 1254, Method: STANDARD PLATE inactive; negative
active: [1] active; positive | Test System: AMES SALMONELLA TYPHIMURIUM, Strain/Indicator: TA98, Metabolic Activation: RAT LIVER S-9, AROCLOR 1254, Method: STANDARD PLATE active; positive

Reference: PubChem BioAssay AID1259407 (Chemical Carcinogenesis Research Information System (CCRIS), 2018)
